Test results from patent publication US7807617B2, “Peptide inhibitors of toxins derived from LL-37” (priority 2003, dated 2010).
Several values for one entry are separate records, joined by “and”; a condition that tells them apart may be missing. Identical values can stand only once.

Experiments:
[1] = test system: peripheral blood mononuclear cells (PBMC); experiment: T cell proliferation ([3H] thymidine incorporation); format: cell-based; conditions: fraction of positive stimulation indices (positive: >2), 10 μg/ml, 5 days
Description: (§1) The compounds prepared according to example 1 were tested for their therapeutically undesirable immunogenic activity by using Elispot, T-cell proliferation, ERK-activation, and neutrophil chemotaxis assays. The Elispot assay is applicable to determine effects of drugs, chemicals or other compounds on cytokine secretion in vitro, thereby providing data on their putative modulatory effects on immune function in vivo. The results of the assay are given as fraction of positive responses to IFN-gamma. […] Cytokines are direct mediators of inflammation and influence the progress and direction of many immunological reactions. Perturbation of the balance in cytokine production is widely recognized as a critical factor in several disease states. This balance is already disturbed in the case of conditions such as otitis media with effusion and sinusitis. T cell proliferation is also not favorable in this situation, because this will also stimulate the immune response that is already out of control.
(§2) For T cell proliferation, 150,000 peripheral blood mononuclear cells (PBMC) were cultured in the absence or presence of 10 μg/ml of the compounds for 5 days in 96 well round bottom plates (Costar Inc. Cambridge, Mass.) in a final volume of 150 μl IMDM complete. As a positive control, PBMC were cultured in the presence of 25 U/ml recombinant IL-2. During the final 20 hours of culture, PBMC were pulsed with [3H] thymidine (0.5 microCi/well), after which ^3H-incorporation was measured by liquid scintillation counting. For detection of the T cell cytokines IFN and IL-10 by Elispot analysis, 1.5×10^6 PBMC were cultured in 0.5 ml IMDM complete in the absence or presence of various concentrations of synthetic peptide. As a positive control PBMC were stimulated by 10 μg/ml poke weed mitogen (PWM). After 48 hours of culture, PBMC were harvested by gently rinsing the wells with warm IMDM to collect non-adherent cells, which were washed in a large volume of IMDM. PBMC were subsequently plated on antibody-precoated ELISA plates and cultured for 5 hours in IMDM supplemented with 2% pooled human AB serum at 37° C. 5% CO2, after which the plates were developed according to the manufacturer's protocol (U-CyTech, Utrecht, The Netherlands). Spots were counted on an Olympus microscope and analyzed with Olympus Micro Image 4.0 software (Paes Nederland, Zoeterwoude, The Netherlands). The final results are expressed as fraction of positive stimulation indices (positiv: >2).

bacterial toxin LPS [2] = experiment: LPS neutralization, whole blood (WB) assay; format: cell-based; conditions: ±SD
Description: (§3) Compounds prepared according to example 1 were tested for their capability to neutralize the bacterial toxin LPS with a limulus amoebocyte lysate (LAL) assay and with a whole blood (WB) assay. LTA neutralization was also measured with a whole blood assay. Peptide LL-37 was used as a positive control. The peptide concentration whereby 50% LPS is neutralized (50% inhibition) was used as a measure of the peptide's activity. These concentration values were as in table 1. The differences between the compounds within each assay were not statistically significant.

[3] = test system: neutrophils isolated from peripheral blood; experiment: Neutrophil chemotaxis, modified Boyden chamber; format: cell-based; conditions: percentage neutrophils on the membrane compared to positive control 10^-8 M FMLP; 90 minutes
Description: Neutrophils chemotaxis was measured with neutrophils isolated from peripheral blood using Percoll density centrifugation (density: 1.082 g/ml). The cells were resuspended at a concentration of 2.5×10^6 cells/ml in chemotaxis medium (20 mM N-2-hydroxyethylpiperazine-N′-2-ethanesulfonic acid (HEPES buffer) HEPES, 132 mM NaCl, 6 mM KCl, 1.2 mM KH2PO4, 1 mM MgSO4, 5.5 mM glucose, 0.1 mM CaCl2 and 0.5% (wt/vol) human serum albumin [Central Laboratory of the Netherlands Red Cross Blood Transfusion Service (CLB), Amsterdam, The Netherlands] diluted 1:1 with serum-free RPMI. The chemotactic activity of the compounds was assessed using a modified Boyden Camber technique. Briefly, 26 μl stimuli diluted in HEPES buffer was added to the wells of the lower compartment, and 50 μl of neutrophil suspension (2.5×10^6 cells/ml) was added to the upper compartment. The compartments were separated by two filters: a lower filter with a pore size of 0.45 μm (Millipore Products, Bedford, Mass.) and an upper filter with a pore size of 8 μm (Sartorius Filter, San Francisco, Calif.). After incubation for 90 minutes at 37° C., the upper filters were removed, fixed in ethanol-butanol (80:20, vol/vol), and stained with Weigert solution. To determine neutrophil chemotactic activity, neutrophils were counted in six random high-power fields (×400), and the percentage neutrophils on the membrane as compared to the positive control (10^-8 M N-formylmethionyl-leucyl-phenylalanine (FMLP, Sigma) was calculated.

[4] = test system: peripheral blood mononuclear cells (PBMC); experiment: γ-IFN Elispot assay (cytokine secretion); format: cell-based; conditions: for γ-IFN Elispot: fraction of positive stimulation indices (positive: >2), PBMC, 48 hours of culture
Description: as §1, §2

lipoteichoic acid (LTA) = experiment: LTA neutralization, whole blood (WB) assay; format: cell-based; conditions: ±SD, n = 3
Description: as §3

bacterial toxin LPS [5] = experiment: LPS neutralization, limulus amoebocyte lysate (LAL) assay; format: biochemical; conditions: ±SD; for 50%-LPS inhibition, Average: average of LAL-assay and WB-assay
Description: as §3

[6] = Ototoxicity, auditory brainstem response (ABR) after round window membrane application; format: in vivo, guinea pig; conditions: for Δ presurgery (ABR threshold change) / ABR treshold (dB): cisplatin 0.66 mg/ml in PBS, P60.4Ac 2 mg/ml in phosphate buffer; for ABR treshold (dB): round window membrane
Description: For evaluating the ototoxicity, nine healthy male albino guinea pigs (500-1200 g), free of external ear pathology, were used. Animals were anesthetized with intraperitoneal injections of ketamine 40 mg/kg and rompun 10 mg/kg. After control auditory testing was performed, the auditory bullae were surgically opened to apply a small piece of spongostan to the round window membrane (RWM) and various solutions (approximately 10 μL) were added on the spongostan. The skin was sutured closed and follow-up auditory testing was performed.
The guinea pigs were divided into three groups, each consisting of two animals to be treated and one control animal. Test and control formulations were administered onto the RWM of the right ears, while the left ears remained untreated. […] Group 2 received the peptide (2 mg/ml) in phosphate buffer (pH7.5) and group 3 received the peptide (2 mg/ml) in formulation solution comprising 7% macrogol 10,000 in isotonic sodium chloride solution preserved with 0.02% benzalkonium chloride and 0.1% Na2EDTA, buffered at pH 5.5 with phosphate.
Auditory brainstem response (ABR) was performed prior to drug administration and directly after surgery and 3, 7, 14 and 22 days later, using a computer-based signal averaging system (Tucker-Davis Technology, Alucha, Fla., USA). Guinea pigs were anesthetized and an insert earphone was placed into the external ear canal. […] Ground electrodes were placed over the neck muscles. ABRs were recorded in an electrically shielded, double-walled, radio-frequency-shielded sound chambre in response to 10 ms tone bursts at 1 kHz. Stimulus intensities were measured and expressed as dB. ABR treshold was defined as the lowest intensity capable of eliciting a replicable, visually detectable response. The post-treatment ABR tresholds were compared to pre-treatment ABR tresholds.

Skin irritation test = format: in vivo, rabbit; conditions: 0.5 ml peptide solution 2 mg/ml on clipped skin for 4 hours, semi-occlusive; observed 1-72 hours
Description: (§4) Compound P60.4Ac was prepared according to example 1 and tested for its tolerability in vivo. More specifically, its potential for causing skin and eye irritation was evaluated in rabbits, whereas its ototoxicity was studied in a guinea pig model. Furthermore, its systemic toxicity was assessed after intravenous administration.
(§5) For the skin and eye irritation tests, three rabbits were exposed to 0.5 ml phosphate buffered peptide solution (2 mg/ml), applied onto clipped skin for 4 hours using a semi-occlusive dressing. Observations were made 1, 24, 48, and 72 hours after exposure. Single samples of 0.1 ml of phosphate buffered (pH7.5) peptide solution (2 mg/ml) were instilled into one eye of each of three rabbits to perform an acute eye irritation/corrosion study. Observations were made 1, 24, 48, and 72 hours after instillation.

[7] = Acute eye irritation/corrosion study; format: in vivo, rabbit; conditions: 0.1 ml peptide solution 2 mg/ml (pH7.5) instilled into one eye
Description: as §4, §5

[8] = Systemic single and repeated dose toxicity, intravenous; format: in vivo, rat; conditions: rats
Description: as §4
The systemic toxicity of P60.4Ac was assessed in a single and repeated dose toxicity study in rats. The peptide was administered daily intravenously in escalating doses. In this phase, the Maximum Tolerated Dose (MTD) was established. Repeated dose toxicity was also studied in the MTD phase. In the dose escalation phase, 9 rats were divided in three groups and received 0.4, 2 or 8 mg/kg/day for two days. Clinical signs were recorded twice daily on days of dosing and one day after dosing, body weights were recorded prior to the first dose and one day after dosing. In the MTD phase, 5 female and 5 male rats received 8 mg/kg/day for 5 following days. Clinical signs were recorded twice daily on days of dosing, body weight on day 1 and 6. Clinical laboratory investigations were performed prior to necropsy. Macroscopy was performed at termination of the MTD phase.

[9] = i.v. 0.4, 2 or 8 mg/kg/day for two days

| Substance | T cell proliferation [1] | 50%-LPS inhibition, WB-assay (bacterial toxin LPS [2]) | Chemotaxis (%) [3] | γ-IFN Elispot [4] | 50%-LTA inh. (lipoteichoic acid (LTA)) | 50%-LPS inhibition, LAL-assay (bacterial toxin LPS [5]) | 50%-LPS inhibition, Average (bacterial toxin LPS [5]) | also measured |
| --- | --- | --- | --- | --- | --- | --- | --- | --- |
| IGKEFKRIVQRIKDFLRNLVPRTE [Compound P60] | 0/8 | 1.4 ± 0.1 µg/mL | 76 ± 39% | 1/8 | 2.1 ± 0.7 µg/mL | 1.5 ± 0.5 µg/mL | 1.5 ± 0.3 µg/mL |  |
| LL-37 [reference compound] | 4/8 | 1.2 ± 0.2 µg/mL | 84 ± 17% | 4/8 | 1.6 ± 0.5 µg/mL | 1.3 ± 0.2 µg/mL | 1.3 ± 0.2 µg/mL |  |
| IGKEFKRIVERIKRFLRELVRPLR [Compound P60.4] | 0/8 | 2.1 ± 0.6 µg/mL | 0 ± 0% | 3/8 | 2.0 ± 1.3 µg/mL | 1.7 ± 0.6 µg/mL | 1.8 ± 0.6 µg/mL | immune response (summary of table 2) ([4]; compared with natural peptide LL-37): very low immune response |
| Ac-IGKEFKRIVERIKRFLRELVRPLR-NH2 [Compound P60.4Ac] |  |  |  |  |  |  |  | Δ presurgery (ABR threshold change) ([6]; 3 days): −2 dB; ABR treshold (dB) ([6]; 3 days): 70 dB; Δ presurgery (ABR threshold change) ([6]; 7 days): 0 dB; ABR treshold (dB) ([6]; 7 days): 72 dB; Δ presurgery (ABR threshold change) ([6]; 14 days): −12 dB; ABR treshold (dB) ([6]; 14 days): 60 dB; Δ presurgery (ABR threshold change) ([6]; 22 days after surgery): −7 dB; ABR treshold (dB) ([6]; 22 days): 65 dB; ABR threshold change ([6]; peptide 2 mg/ml in formulation solution (7% macrogol 10,000, isotonic NaCl, benzalkonium chloride, Na2EDTA, pH 5.5), two animals): 2 dB and 1 dB; Δ presurgery (ABR threshold change) ([6]; postsurgery): −2 dB; ABR treshold (dB) ([6]; postsurgery, 1 kHz, one animal per column): 70 dB; skin irritation (Skin irritation test): no skin irritation was detectable; redness of the conjunctivae, time to complete resolution after instillation [7]: ≤ 24 h; clinical signs, body weight, hematology, clinical biochemistry and macroscopic examination, MTD phase ([8]; i.v. 8 mg/kg/day for 5 days): no clear peptide related findings; mortality, MTD phase ([8]; i.v. 8 mg/kg/day for 5 days): no mortality occurred; clinical signs and body weight, dose escalation phase [8, 9]: no clear deviations; mortality, dose escalation phase [8, 9]: no mortality occurred |
| IGKEFKRIVQRIKDFLRNLVPRTE [Compound P60.Ac] | 0/8 | 2.4 ± 0.5 µg/mL | 61 ± 36% | 3/8 | 2.1 ± 0.1 µg/mL | 1.8 ± 0.8 µg/mL | 2.0 ± 0.8 µg/mL |  |
